Measured values taken from patent publication US8299070B2, “Indole compounds and pharmaceutical use thereof” (Japan Tobacco Inc., priority 2009, dated 2012).

molecular target: T1, hITK enzyme (FLAG-tagged full-length hITK) (Homo sapiens, UniProt Q08881); experiment: ITK inhibitory activity (HTRF kinase assay, biotinylated GST-SLP76 substrate); type: biochemical; settings: IC50 calculated from the 2 test compound concentrations sandwiching 50% ITK inhibitory rate
T1 construct: strongly expressing FLAG-tagged full-length hITK in Sf9 cells; FLAG; made in house; host or cells: Sf9 insect cells (ITK); Escherichia coli (GST-SLP76 substrate)
T1 sequence (Q08881 1-620): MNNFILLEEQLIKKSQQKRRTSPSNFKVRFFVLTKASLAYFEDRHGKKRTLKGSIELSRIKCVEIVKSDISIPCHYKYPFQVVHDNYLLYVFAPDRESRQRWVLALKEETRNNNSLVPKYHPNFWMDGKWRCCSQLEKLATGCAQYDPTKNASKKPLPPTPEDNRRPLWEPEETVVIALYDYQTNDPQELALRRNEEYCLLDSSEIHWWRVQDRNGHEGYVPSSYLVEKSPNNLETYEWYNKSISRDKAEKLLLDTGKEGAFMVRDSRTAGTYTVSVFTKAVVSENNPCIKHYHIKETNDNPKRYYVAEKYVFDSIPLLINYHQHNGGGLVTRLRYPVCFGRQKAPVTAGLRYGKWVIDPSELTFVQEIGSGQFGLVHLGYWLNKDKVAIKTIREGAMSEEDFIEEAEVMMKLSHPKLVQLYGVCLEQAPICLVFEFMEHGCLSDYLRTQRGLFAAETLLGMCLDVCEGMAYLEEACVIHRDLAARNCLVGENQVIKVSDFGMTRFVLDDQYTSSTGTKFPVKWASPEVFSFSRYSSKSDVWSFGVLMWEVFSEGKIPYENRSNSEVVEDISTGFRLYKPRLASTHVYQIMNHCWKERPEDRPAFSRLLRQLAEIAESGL
Method: (1) Preparation of hITK Enzyme
hITK enzyme was prepared by strongly expressing FLAG-tagged full-length hITK in Sf9 cells, and purifying same by anti-FLAG antibody column.
(2) Preparation of biotinylated GST-SLP76
Biotinylated GST-SLP76 was prepared by strongly expressing GST-tagged SLP76 (aa95-175) in Escherichia coli, purifying same by glutathion sepharose column and biotinylating same.
(3) Preparation of Solution
(i) buffer for dilution: 20 mmol/L 3-(N-morpholino)propanesulfonic acid (pH 7.0) (DOJINDO LABORATORIES), 10 mmol/L magnesium chloride (Sigma-Aldrich Corporation), 1 mmol/L dithiothreitol (Nacalai Tesque, Inc.), 0.1% gelatin (Sigma-Aldrich Corporation)
(ii) substrate solution: 0.2 μg/mL biotinylated GST-SLP76, 100 μmol/L ATP (Sigma-Aldrich Corporation), prepared with buffer for dilution
(iii) test compound solution: test compound, 50% dimethyl sulfoxide (DMSO), prepared with buffer for dilution
(iv) enzyme solution: 50 ng/mL hITK enzyme, prepared with buffer for dilution
(v) control solution: solution after removal of test compound from the mixture of the above-mentioned (i), (ii) and (iii)
(vi) blank solution: solution after removal of ATP from the mixture of the above-mentioned (i), (ii) and (iii)
(vii) detection buffer: 0.1 μg/mL Anti-Phosphotyrosine (PT66)-Cryptate (Cisbio), 2.5 μg/mL streptavidin-binding XL665 (Cisbio), 50 mmol/L 4-(2-hydroxyethyl)-1-piperazineethanesulfonic acid (pH 7.4) (Nacalai Tesque, Inc.), 30 mmol/L EDTA (NipponGene), 0.1% TritonX (Sigma-Aldrich Corporation), 200 mmol/L potassium fluoride (Wako Pure Chemical Industries, Ltd.), 0.05% bovine serum albumin (Sigma-Aldrich Corporation) (4) Measurement of ITK Inhibitory Activity
A substrate solution (25 μL/well), a test compound solution (5 μL/well) and an enzyme solution (20 μL/well) were added into 96 well half-area white plate (plate, Corning Incorporated 3642) to start a kinase reaction. The plate was stood still at room temperature for 10 min. Then, a detection buffer (50 μL/well) was added to the plate. After 2 hr from the addition of the detection buffer, fluorescence intensity at 620 nm (excited at 337 nm), and fluorescence intensity at 665 nm ([…]) were measured by a fluorescence microplate reader.
The Ratio (fluorescence intensity at 665 nm/fluorescence intensity at 620 nm×10000) of each test compound was calculated from the measured fluorescence intensity. Simultaneously, the measurement was performed using a blank solution and a control solution, and % of control value of each test compound was calculated from the following formula. % of control=(Ratio of test compound−Ratio of blank)/(Ratio of control−Ratio of blank)×100 ITK inhibitory rate (%)=100−(% of control)
The IC50 value was calculated from the test compound concentrations at 2 points sandwiching 50% ITK inhibitory rate.
In the test for the compounds of Examples 380 and 381, the ATP concentration of the substrate solutions was 6 μmol/L.

Structure (SMILES) | IC50
CN(c1ccc2cc(-c3n[nH]c4c3CCC(C)(C)C4)[nH]c2c1)C(=O)[C@H]1CC[C@H](O)CC1 [Example 101] | 13 nM
CN(C(=O)OC1CCCCC1)c1ccc2cc(-c3n[nH]c4c3CCC(C)(C)C4)[nH]c2c1 [Example 102] | 117 nM
CN(C(=O)CN1CCCCC1=O)c1ccc2cc(-c3n[nH]c4c3CCC(C)(C)C4)[nH]c2c1 [Example 105] | 2 nM
CN(C(=O)C1CC(=O)OC1(C)C)c1ccc2cc(-c3n[nH]c4c3CCC(C)(C)C4)[nH]c2c1 (centres unmarked) [Example 106] | 7 nM
CN(C(=O)CN1CCC(O)CC1)c1ccc2cc(-c3n[nH]c4c3CCC(C)(C)C4)[nH]c2c1 [Example 107] | 10 nM
CN(C(=O)CN1CCC[C@H](O)C1)c1ccc2cc(-c3n[nH]c4c3CCC(C)(C)C4)[nH]c2c1 [Example 109] | 6 nM
CN(C(=O)CN1CCC[C@@H](O)C1)c1ccc2cc(-c3n[nH]c4c3CCC(C)(C)C4)[nH]c2c1 [Example 110] | 7 nM
CO[C@H]1CCCN(CC(=O)N(C)c2ccc3cc(-c4n[nH]c5c4CCC(C)(C)C5)[nH]c3c2)C1 [Example 114] | 5 nM
CO[C@@H]1CCCN(CC(=O)N(C)c2ccc3cc(-c4n[nH]c5c4CCC(C)(C)C5)[nH]c3c2)C1 [Example 115] | 4 nM
CN(C(=O)C1CCCCC1)c1ccc2cc(-c3n[nH]c4c3CCC(C)(C)C4)[nH]c2c1 [Example 124] | 12 nM
CCC(=O)N(C)CC(=O)N(C)c1ccc2cc(-c3n[nH]c4c3CCC(C)(C)C4)[nH]c2c1 [Example 125] | 1 nM
CN(C(=O)CN1CCCCCC1=O)c1ccc2cc(-c3n[nH]c4c3CCC(C)(C)C4)[nH]c2c1 [Example 127] | 1 nM
CN(C(=O)C1CCC(=O)N1)c1ccc2cc(-c3n[nH]c4c3CCC(C)(C)C4)[nH]c2c1 (centres unmarked) [Example 128] | 2 nM
CN(C(=O)C(O)COC1CCCC1)c1ccc2cc(-c3n[nH]c4c3CCC(C)(C)C4)[nH]c2c1 (centres unmarked) [Example 131] | 25 nM
CN(C(=O)CN1CCCS1(=O)=O)c1ccc2cc(-c3n[nH]c4c3CCC(C)(C)C4)[nH]c2c1 [Example 138] | 3 nM
CN(C(=O)CCN1CCCCC1=O)c1ccc2cc(-c3n[nH]c4c3CCC(C)(C)C4)[nH]c2c1 [Example 141] | 10 nM
CN(C(=O)CC1CCC(=O)N1C)c1ccc2cc(-c3n[nH]c4c3CCC(C)(C)C4)[nH]c2c1 (centres unmarked) [Example 142] | 5 nM
CN(C(=O)CC1CCC(=O)N1)c1ccc2cc(-c3n[nH]c4c3CCC(C)(C)C4)[nH]c2c1 (centres unmarked) [Example 143] | 3 nM
CN(C(=O)CCN1CCCC1=O)c1ccc2cc(-c3n[nH]c4c3CCC(C)(C)C4)[nH]c2c1 [Example 144] | 9 nM
CN(C(=O)[C@H]1CCC(=O)N1C)c1ccc2cc(-c3n[nH]c4c3CCC(C)(C)C4)[nH]c2c1 [Example 150] | 2 nM

More lines, now with the values ahead:

IC50 | Structure (SMILES)
3 nM | CN(C(=O)CC1CCCOC1)c1ccc2cc(-c3n[nH]c4c3CCC(C)(C)C4)[nH]c2c1 (centres unmarked) [Example 103]
4 nM | CC(C(=O)N(C)c1ccc2cc(-c3n[nH]c4c3CCC(C)(C)C4)[nH]c2c1)N1CCOCC1 (centres unmarked) [Example 104]
15 nM | CC(C(=O)N(C)c1ccc2cc(-c3n[nH]c4c3CCC(C)(C)C4)[nH]c2c1)N1CCC(O)CC1 (centres unmarked) [Example 108]
9 nM | CC(C(=O)N(C)c1ccc2cc(-c3n[nH]c4c3CCC(C)(C)C4)[nH]c2c1)N1CCC[C@H](O)C1 (some centres unmarked) [Example 111]
7 nM | CC(C(=O)N(C)c1ccc2cc(-c3n[nH]c4c3CCC(C)(C)C4)[nH]c2c1)N1CCC[C@@H](O)C1 (some centres unmarked) [Example 112]
9 nM | COC1CCN(C(C)C(=O)N(C)c2ccc3cc(-c4n[nH]c5c4CCC(C)(C)C5)[nH]c3c2)CC1 (centres unmarked) [Example 113]
9 nM | CO[C@H]1CCCN(C(C)C(=O)N(C)c2ccc3cc(-c4n[nH]c5c4CCC(C)(C)C5)[nH]c3c2)C1 (some centres unmarked) [Example 116]
6 nM | CO[C@@H]1CCCN(C(C)C(=O)N(C)c2ccc3cc(-c4n[nH]c5c4CCC(C)(C)C5)[nH]c3c2)C1 (some centres unmarked) [Example 117]
3 nM | CC1CN(CC(=O)N(C)c2ccc3cc(-c4n[nH]c5c4CCC(C)(C)C5)[nH]c3c2)CC(C)O1 (centres unmarked) [Example 118]
3 nM | C[C@@H]1CN(CC(=O)N(C)c2ccc3cc(-c4n[nH]c5c4CCC(C)(C)C5)[nH]c3c2)C[C@H](C)O1 [Example 119]
5 nM | CC1CN(C(C)C(=O)N(C)c2ccc3cc(-c4n[nH]c5c4CCC(C)(C)C5)[nH]c3c2)CC(C)O1 (centres unmarked) [Example 120]
5 nM | CC(C(=O)N(C)c1ccc2cc(-c3n[nH]c4c3CCC(C)(C)C4)[nH]c2c1)N1C[C@@H](C)O[C@@H](C)C1 (some centres unmarked) [Example 121]
20 nM | CC(C(=O)N(C)c1ccc2cc(-c3n[nH]c4c3CCC(C)(C)C4)[nH]c2c1)N1CCCCC1 (centres unmarked) [Example 122]
2 nM | CN(C(=O)COC1CCCOC1)c1ccc2cc(-c3n[nH]c4c3CCC(C)(C)C4)[nH]c2c1 (centres unmarked) [Example 123]
8 nM | CNCC(=O)N(C)c1ccc2cc(-c3n[nH]c4c3CCC(C)(C)C4)[nH]c2c1 [Example 126]
5 nM | CCC(C(=O)N(C)c1ccc2cc(-c3n[nH]c4c3CCC(C)(C)C4)[nH]c2c1)N1CCOCC1 (centres unmarked) [Example 129]
2 nM | CC1COCC(=O)N1CC(=O)N(C)c1ccc2cc(-c3n[nH]c4c3CCC(C)(C)C4)[nH]c2c1 (centres unmarked) [Example 130]
13 nM | CC(C)OCC(O)C(=O)N(C)c1ccc2cc(-c3n[nH]c4c3CCC(C)(C)C4)[nH]c2c1 (centres unmarked) [Example 132]
10 nM | CC(C(=O)N(C)c1ccc2cc(-c3n[nH]c4c3CCC(C)(C)C4)[nH]c2c1)N1CCCCC1=O (centres unmarked) [Example 133]
8 nM | CC(C(=O)N(C)c1ccc2cc(-c3n[nH]c4c3CCC(C)(C)C4)[nH]c2c1)N1CCCC1=O (centres unmarked) [Example 134]
6 nM | C[C@H](C(=O)N(C)c1ccc2cc(-c3n[nH]c4c3CCC(C)(C)C4)[nH]c2c1)N1CCOCC1 [Example 135]
2 nM | CC1CCC(=O)N1CC(=O)N(C)c1ccc2cc(-c3n[nH]c4c3CCC(C)(C)C4)[nH]c2c1 (centres unmarked) [Example 136]
2 nM | CC1CCCC(=O)N1CC(=O)N(C)c1ccc2cc(-c3n[nH]c4c3CCC(C)(C)C4)[nH]c2c1 (centres unmarked) [Example 137]
2 nM | CN(C(=O)[C@@H]1CCCO1)c1ccc2cc(-c3n[nH]c4c3CCC(C)(C)C4)[nH]c2c1 [Example 139]
2 nM | CN(C(=O)[C@H]1CCCO1)c1ccc2cc(-c3n[nH]c4c3CCC(C)(C)C4)[nH]c2c1 [Example 140]
3 nM | CC1COCCN1CC(=O)N(C)c1ccc2cc(-c3n[nH]c4c3CCC(C)(C)C4)[nH]c2c1 (centres unmarked) [Example 145]
11 nM | CC1COCCN1C(C)C(=O)N(C)c1ccc2cc(-c3n[nH]c4c3CCC(C)(C)C4)[nH]c2c1 (centres unmarked) [Example 146]
8 nM | CC(C(=O)N(C)c1ccc2cc(-c3n[nH]c4c3CCC(C)(C)C4)[nH]c2c1)N1CCOCC1=O (centres unmarked) [Example 147]
19 nM | CN(C(=O)[C@@H]1CCCN1C)c1ccc2cc(-c3n[nH]c4c3CCC(C)(C)C4)[nH]c2c1 [Example 148]
10 nM | CN(C(=O)[C@H]1CCCN1C)c1ccc2cc(-c3n[nH]c4c3CCC(C)(C)C4)[nH]c2c1 [Example 149]
